This is an account of results in BindingDB's records for doi:10.1002/cbic.201100332 (University of British Columbia, 2011).

The target in this assay is T1, Lysosomal acid glucosylceramidase (Homo sapiens, UniProt P04062).
T1 sequence (P04062 whole entry): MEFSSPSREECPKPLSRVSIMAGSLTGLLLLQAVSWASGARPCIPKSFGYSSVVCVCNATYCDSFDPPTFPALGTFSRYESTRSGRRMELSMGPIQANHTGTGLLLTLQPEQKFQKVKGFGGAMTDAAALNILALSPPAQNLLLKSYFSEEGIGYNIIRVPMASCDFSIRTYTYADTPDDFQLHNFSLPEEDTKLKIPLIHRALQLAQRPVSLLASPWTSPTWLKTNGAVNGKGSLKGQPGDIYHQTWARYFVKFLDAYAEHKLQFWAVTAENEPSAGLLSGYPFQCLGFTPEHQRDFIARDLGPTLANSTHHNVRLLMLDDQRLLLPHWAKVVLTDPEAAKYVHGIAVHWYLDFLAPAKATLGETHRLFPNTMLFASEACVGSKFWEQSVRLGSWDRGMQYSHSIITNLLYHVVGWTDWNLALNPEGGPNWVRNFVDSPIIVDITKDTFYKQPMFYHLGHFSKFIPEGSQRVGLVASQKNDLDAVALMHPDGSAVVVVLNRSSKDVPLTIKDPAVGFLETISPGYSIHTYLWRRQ
Put plainly: Fluorescene-based Assay. The text has this: Fluorescene-based assay using beta-glucocerebrosidase.

Turning to `OCCCC1NCC(O)C(O)C1CO` (stereo unspecified) [Isofagomine derivative, 10], the Ki runs as follows: (pH 5.5) 100 nM; (pH 7) 110 nM.
In the same order, the values of `CCCC1NCC(O)C(O)C1CO` (stereo unspecified) [Isofagomine derivative, 6] are 610 nM and 210 nM.
In the same order, the values of `CCCC1(CCC)NCC(O)C(O)C1CO` (stereo unspecified) [Isofagomine derivative, 8] are 600 nM and 1400 nM.

In general, Ki refers to the dissociation constant of the complex between target and ligand, obtained from inhibition or displacement. A low value points to tighter binding.
